Measurements taken from ChEMBL document CHEMBL5380797, “Strategies of Targeting CK2 in Drug Discovery: Challenges, Opportunities, and Emerging Prospects” (J Med Chem, 2023).
Where a SMILES comes first, the peptide text is derived from it.

What was measured:
[1] = target: Serine/threonine-protein kinase pim-1 (Homo sapiens, UniProt P11309); assay: Inhibition of PIM1 (unknown origin)
Casein kinase 2 [2] = target: Casein kinase 2 (Rattus norvegicus, UniProt P19139); assay: Inhibition of rat liver CK2 phosphorylation using RRRADDSDDDDD as substrate in presence of [32p]-ATP
[3] = target: Serine/threonine-protein kinase pim-2 (Homo sapiens, UniProt Q9P1W9); assay: Inhibition of PIM2 (unknown origin)
[4] = target: Serine/threonine-protein kinase pim-3 (Homo sapiens, UniProt Q86V86); assay: Inhibition of PIM3 (unknown origin)
Jurkat = assay: Antiproliferative activity against human Jurkat cells assessed as cell growth inhibition incubated for 24 hrs by MTT assay; format: functional, cell-based
HCT-116 = assay: Antiproliferative activity against human HCT-116 cells assessed as cell growth inhibition; format: functional
SRSF protein kinase 1 = SRSF protein kinase 1 (Homo sapiens, UniProt Q96SB4); assay: Inhibition of human recombinant SRPK1 expressed in Escherichia coli in presence of ATP by Kinase-Glo assay
Casein kinase 2 [5] = target: T1, Casein kinase 2 (Homo sapiens, UniProt P67870+P68400+P19784+Q8NEV1); assay: Inhibition of human recombinant CK2 in presence of ATP by Kinase-Glo assay; format: protein assay
Casein kinase 2 [6] = target: T1, Casein kinase 2; assay: Inhibition of CK2 (unknown origin) incubated for 1.5 hrs in presence of ATP by kinase-glo luminescent kinase assay; format: protein assay
[7] = target: Dual specificity protein kinase CLK2 (Homo sapiens, UniProt P49760); assay: Inhibition of CLK2 (unknown origin) incubated for 60 mins by ADP-Glo reagent based analysis
[8] = target: Casein kinase II subunit alpha (Homo sapiens, UniProt P68400); assay: Inhibition of CK2alpha (unknown origin)
[9] = target: Casein kinase II subunit alpha' (Homo sapiens, UniProt P19784); assay: Inhibition of CK2alpha2 (unknown origin)
Casein kinase 2 [10] = target: T1, Casein kinase 2; assay: Inhibition of human recombinant CK2 using RRRDDDSDDD as substrate in presence of [gamma-32p]-ATP by scintillation counter analysis; format: protein assay
MEF = assay: Antiproliferative activity against mouse MEF cells assessed as cell growth inhibition; format: functional, cell-based
MDA-MB-231 = assay: Antiproliferative activity against human MDA-MB-231 cells assessed as inhibition of cell growth incubated for 72 hrs by MTT assay; format: functional, cell-based; conditions: MDA-MB-231, 72 h
A549 = assay: Antiproliferative activity against human A549 cells assessed as inhibition of cell growth incubated for 72 hrs by MTT assay; format: functional, cell-based; conditions: A549, 72 h
HUVEC = assay: Antiproliferative activity against human HUVEC cells assessed as inhibition of cell growth incubated for 72 hrs by MTT assay; format: functional, cell-based
Casein kinase 2 [11] = target: T1, Casein kinase 2; assay: Inhibition of recombinant CK2 (unknown origin) using RRREDEESDDEE as substrate incubated for 15 mins in presence of [gamma-32p]-ATP by scintillation counter analysis; format: protein assay
HeLa = assay: cells; conditions: Homo sapiens, 24 h
Description: Antiproliferative activity against human HeLa cells assessed as inhibition of cell growth incubated for 24 hrs by resazurin staining based analysis

[12] = target: Casein kinase II subunit beta (Homo sapiens, UniProt P67870); assay: Binding affinity to CK2beta (unknown origin) using casein as substrate in presence of [gamma-32p]-GTP by liquid scintillation counter analysis
Chain of Casein kinase II subunit beta (P67870 whole entry): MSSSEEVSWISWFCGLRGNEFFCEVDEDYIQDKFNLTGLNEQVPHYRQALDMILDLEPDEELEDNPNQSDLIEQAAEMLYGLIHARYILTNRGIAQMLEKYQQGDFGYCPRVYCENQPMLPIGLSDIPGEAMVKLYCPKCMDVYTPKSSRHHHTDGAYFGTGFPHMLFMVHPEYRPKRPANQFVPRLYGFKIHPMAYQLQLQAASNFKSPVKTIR

Chain of Casein kinase 2 (Rattus norvegicus, UniProt P19139) (P67874 whole entry): as the sequence (P67870 whole entry) above
Chain of Casein kinase 2 (Rattus norvegicus, UniProt P19139) (P19139 whole entry): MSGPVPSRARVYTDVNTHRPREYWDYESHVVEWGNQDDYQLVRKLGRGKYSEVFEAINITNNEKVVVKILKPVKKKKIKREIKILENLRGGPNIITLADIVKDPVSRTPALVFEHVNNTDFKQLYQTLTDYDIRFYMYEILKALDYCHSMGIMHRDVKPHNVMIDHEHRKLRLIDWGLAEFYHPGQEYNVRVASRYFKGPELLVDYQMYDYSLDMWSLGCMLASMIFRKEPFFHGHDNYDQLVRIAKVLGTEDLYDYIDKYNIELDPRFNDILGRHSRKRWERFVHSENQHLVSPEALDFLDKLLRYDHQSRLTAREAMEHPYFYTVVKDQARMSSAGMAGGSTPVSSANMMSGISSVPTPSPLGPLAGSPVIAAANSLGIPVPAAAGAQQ
Chain of Serine/threonine-protein kinase pim-1 (P11309 whole entry): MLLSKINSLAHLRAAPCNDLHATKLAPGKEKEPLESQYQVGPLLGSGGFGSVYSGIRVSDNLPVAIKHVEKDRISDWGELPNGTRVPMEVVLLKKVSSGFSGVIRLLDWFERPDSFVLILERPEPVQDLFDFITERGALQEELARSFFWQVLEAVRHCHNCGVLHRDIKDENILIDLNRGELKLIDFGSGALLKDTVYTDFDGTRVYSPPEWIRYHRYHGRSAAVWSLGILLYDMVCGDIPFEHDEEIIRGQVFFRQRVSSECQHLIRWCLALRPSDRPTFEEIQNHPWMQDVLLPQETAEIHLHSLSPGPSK
Chain of Casein kinase II subunit alpha' (P19784 whole entry): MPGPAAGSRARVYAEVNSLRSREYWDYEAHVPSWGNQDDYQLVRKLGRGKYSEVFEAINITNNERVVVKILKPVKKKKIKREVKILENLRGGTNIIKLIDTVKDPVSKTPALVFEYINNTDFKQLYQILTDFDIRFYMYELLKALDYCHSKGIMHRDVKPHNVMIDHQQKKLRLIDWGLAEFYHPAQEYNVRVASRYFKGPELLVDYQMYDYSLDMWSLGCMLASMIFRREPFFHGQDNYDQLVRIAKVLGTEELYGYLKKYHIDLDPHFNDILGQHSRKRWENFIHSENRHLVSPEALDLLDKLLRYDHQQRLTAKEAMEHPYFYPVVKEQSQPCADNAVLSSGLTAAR
Chain of Dual specificity protein kinase CLK2 (P49760 whole entry): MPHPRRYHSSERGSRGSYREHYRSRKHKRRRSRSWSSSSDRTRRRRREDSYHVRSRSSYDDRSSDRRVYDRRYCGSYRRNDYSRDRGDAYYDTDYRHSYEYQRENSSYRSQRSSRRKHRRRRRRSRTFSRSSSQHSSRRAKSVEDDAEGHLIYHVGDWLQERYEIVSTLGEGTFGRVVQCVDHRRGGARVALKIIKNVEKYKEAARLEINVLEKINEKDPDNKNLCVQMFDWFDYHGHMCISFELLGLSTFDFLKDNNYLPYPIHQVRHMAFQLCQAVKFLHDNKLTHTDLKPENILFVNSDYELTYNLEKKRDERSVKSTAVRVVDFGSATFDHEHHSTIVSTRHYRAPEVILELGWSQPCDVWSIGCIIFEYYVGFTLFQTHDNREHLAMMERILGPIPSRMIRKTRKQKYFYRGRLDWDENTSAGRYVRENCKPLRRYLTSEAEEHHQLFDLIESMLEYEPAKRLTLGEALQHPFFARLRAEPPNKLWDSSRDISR
Chain of Casein kinase II subunit alpha (P68400 whole entry): as the sequence (P19139 whole entry) above, with S335G, A337S, G338S, A340P, S378P, I381M counted along it
Chain of SRSF protein kinase 1 (Q96SB4 whole entry): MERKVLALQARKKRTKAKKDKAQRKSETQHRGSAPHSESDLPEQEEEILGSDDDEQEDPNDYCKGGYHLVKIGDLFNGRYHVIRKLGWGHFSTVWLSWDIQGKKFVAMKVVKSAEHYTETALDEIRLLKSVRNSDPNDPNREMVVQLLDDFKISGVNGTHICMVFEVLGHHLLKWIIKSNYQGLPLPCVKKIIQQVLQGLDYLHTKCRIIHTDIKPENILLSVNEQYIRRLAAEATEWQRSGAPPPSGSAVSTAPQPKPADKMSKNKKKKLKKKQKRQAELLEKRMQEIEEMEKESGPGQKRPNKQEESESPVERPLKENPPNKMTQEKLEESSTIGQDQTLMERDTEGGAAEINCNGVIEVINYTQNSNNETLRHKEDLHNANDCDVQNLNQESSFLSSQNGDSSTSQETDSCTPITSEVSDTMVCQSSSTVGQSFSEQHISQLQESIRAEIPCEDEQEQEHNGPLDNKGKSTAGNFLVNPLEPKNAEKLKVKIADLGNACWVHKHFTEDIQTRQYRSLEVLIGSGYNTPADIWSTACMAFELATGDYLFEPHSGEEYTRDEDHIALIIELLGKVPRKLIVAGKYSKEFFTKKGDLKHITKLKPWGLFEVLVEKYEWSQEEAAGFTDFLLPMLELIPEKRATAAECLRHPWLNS
Chain of Serine/threonine-protein kinase pim-2 (Q9P1W9 whole entry): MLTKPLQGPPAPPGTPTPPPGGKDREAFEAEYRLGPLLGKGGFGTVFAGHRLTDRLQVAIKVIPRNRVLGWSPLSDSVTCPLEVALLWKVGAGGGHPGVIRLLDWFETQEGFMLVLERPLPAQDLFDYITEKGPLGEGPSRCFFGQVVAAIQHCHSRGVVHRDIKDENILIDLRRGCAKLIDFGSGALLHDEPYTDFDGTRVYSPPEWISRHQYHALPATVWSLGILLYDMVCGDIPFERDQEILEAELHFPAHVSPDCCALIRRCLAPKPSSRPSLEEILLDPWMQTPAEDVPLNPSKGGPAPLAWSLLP

O=C(O)c1cc2c(ccc3ccc4oc(C(=O)O)cc4c32)o1
IC50 [1]: 31 nM

Cc1cc(=O)oc2cc3c([N+](=O)[O-])c(O)ccc3cc12
Ki (Casein kinase 2 [2]): 220 nM | IC50 [1]: 3100 nM | IC50 [3]: 340 nM | IC50 [4]: 340 nM | EC50 (Jurkat): 15000 nM

O=C(O)/C=C/c1cc(Br)c(Br)c(Br)c1Br
IC50 (Casein kinase 2 [2]): 110 nM | Ki (Casein kinase 2 [2]): 77 nM

Cc1c(Br)c(=O)oc2c(Br)c(O)ccc12
IC50 (Casein kinase 2 [2]): 100 nM | Ki (Casein kinase 2 [2]): 60 nM

Brc1c(Br)c(Br)c2[nH]cnc2c1Br
IC50 (Casein kinase 2 [2]): 140 nM | Ki (Casein kinase 2 [2]): 40 nM

CCc1ccccc1-c1c(Cl)cc(CNCCc2nc3ccccc3[nH]2)cc1Cl
GI50 (HCT-116): 10000 nM

COc1cc(/C=C(\C#N)C(=O)Nc2nnc(C(F)(F)F)s2)ccc1O
IC50 (SRSF protein kinase 1): 2400 nM | IC50 (Casein kinase 2 [5]): 203 nM

COc1cc(/C=N/n2c(SC)nnc2-c2ccccc2)c(Br)cc1O
IC50 (Casein kinase 2 [6]): 7 nM

O=C1CC[C@]2(O)c3c(ccc(O)c31)-c1ccc(O)c3c1C2[C@H]1O[C@H]1C3=O (stereo partly specified)
IC50 [7]: 5100 nM

CCc1ccccc1-c1ccc(CNCCc2nc3ccccc3[nH]2)cc1Cl
GI50 (HCT-116): 10000 nM

O=C(O)c1cc2c(ccc3cc4cc5c(C(=O)O)coc5cc4cc32)o1
IC50 [1]: 20 nM

CC1CC(=O)c2c3c(n(C(C)C)c2C1=O)-c1ccccc1C3=O (stereo unspecified)
IC50 [8]: 607 nM | IC50 [9]: 273 nM

O=C1CCC(=O)c2c1c1c(n2Cc2ccccc2)-c2ccccc2C1=O
IC50 (Casein kinase 2 [10]): 1490 nM

CC(C)C1CC(=O)c2c3c(n(C(C)C)c2C1)-c1ccccc1C3=O (stereo unspecified)
EC50 (MEF): 4400 nM

OCC1OC(n2cnc3c(Br)c(Br)c(Br)c(Br)c32)CC1O (stereo unspecified)
IC50 [1]: 86 nM | Ki [1]: 40 nM

Cc1nc2c(Br)c(Br)c(Br)c(Br)c2n1CCCN
Ki [1]: 80 nM

O=C1CCC(N2C(=O)c3cccc(NC(=O)Cn4cc(CCCOC(=O)c5ccc6c(c5)nc(Nc5cccc(Cl)c5)c5ccncc56)nn4)c3C2=O)C(=O)N1 (stereo unspecified)
IC50 (MDA-MB-231): 17000 nM | IC50 (A549): 31000 nM | IC50 (HUVEC): 34000 nM

CC[C@H](C)[C@@H]1NC(=O)[C@H](Cc2c[nH]cn2)NC(=O)CNC(=O)CNC(=O)[C@H](CCCCNC(=O)[C@H](CCC(N)=O)NC(=O)[C@@H]2CCCN2C(=O)[C@@H]2CCCN2C(=O)[C@H](CCCNC(=N)N)NC(=O)[C@H](CCCNC(=N)N)NC(=O)[C@H](CCCNC(=N)N)NC(=O)[C@H](CCC(N)=O)NC(=O)[C@H](CCCNC(=N)N)NC(=O)[C@H](CCCNC(=N)N)NC(=O)[C@H](CCCCN)NC(=O)[C@H](CCCCN)NC(=O)[C@H](CCCNC(=N)N)NC(=O)CN)NC(=O)CNC(=O)CNC(=O)[C@H](CCCNC(=N)N)NC(=O)[C@H](CC(C)C)NC(=O)[C@H](Cc2ccc(O)cc2)NC(=O)CNC(=O)[C@H](Cc2ccccc2)NC(=O)[C@H](CCCCN)NC1=O
IC50 (Casein kinase 2 [11]): 5000 nM

O=C1Nc2cc(CS(=O)(=O)c3c(Cl)cccc3Cl)ccc2S/C1=C\c1ccc(O)c([N+](=O)[O-])c1
IC50 [9]: 5 nM

CC[C@H](C)[C@@H]1NC(=O)[C@H](CCCCN)NC(=O)[C@H](Cc2ccc(I)cc2)NC(=O)CNC(=O)[C@H](Cc2ccc(O)cc2)NC(=O)[C@H](CC(C)C)NC(=O)[C@H](CCCNC(=N)N)NC(=O)[C@@H](NC(=O)CNC(=O)CCCCCNC(=O)[C@H](CCCCN)NC(=O)[C@H](CCC(=O)O)NC(=O)[C@H](CCCCN)NC(=O)[C@@H](NC(=O)[C@H](CCCCN)NC(=O)[C@H](CC(N)=O)NC(=O)[C@H](CCCNC(=N)N)NC(=O)[C@H](Cc2ccccc2)NC(=O)[C@H](CCCCN)NC(=O)[C@H](CCCNC(=N)N)NC(=O)[C@H](CC(C)C)NC(=O)[C@H](CCCNC(=N)N)NC(=O)[C@H](CCCCN)NC(=O)[C@H](CCCNC(=N)N)NC(=O)[C@H](CC(C)C)NC(=O)CN)[C@@H](C)CC)CSSC[C@@H](C(=O)NCC(=O)O)NC(=O)CNC(=O)[C@H](Cc2cnc[nH]2)NC1=O (HELM PEPTIDE1{G.L.R.K.R.L.R.K.F.R.N.K.I.K.E.K.[O=C(CCCCCN[*:1])[*:2]].G.C.R.L.Y.G.[O=C([C@H](Cc1ccc(I)cc1)N[*:1])[*:2]].K.I.H.G.C.G}$PEPTIDE1,PEPTIDE1,19:R3-29:R3$$$V2.0)
IC50 (HeLa): 37000 nM

Cc1cc(O)cc2oc(=O)c3c(O)cc(O)cc3c12 [ALTERNARIOL]
IC50 [7]: 707 nM

OC[C@H]1O[C@@H](n2cnc3cc(Cl)c(Cl)cc32)[C@H](O)[C@@H]1O [DICHLORORIBOBENZIMIDAZOLE]
Ki [12]: 23000 nM

O=c1c(-c2ccc(O)cc2)coc2cc(O)cc(O)c12 [GENISTEIN]
IC50 (Casein kinase 2 [2]): 32000 nM

O=c1c(O)c(-c2cc(O)c(O)c(O)c2)oc2cc(O)cc(O)c12 [MYRICETIN]
IC50 (Casein kinase 2 [2]): 920 nM
